The values that follow come from article PMC1281266, “Impact of Polychlorinated Biphenyls Contamination on Estrogenic Activity in Human Male Serum” (Environmental Health Perspectives, 2005).

For one series, the system named is rat uterus. Also on record: method as in Li et al. 1994. To be noted: at very high concentrations; ref Li et al. 1994; cited from earlier work.
The next series deals with MCF-7 cells. Also on record: method as in Bonenfeld-Jorgensen et al. 2001. As to conditions: ref Bonenfeld-Jorgensen et al. 2001; cited from earlier work.
A further series relates to T47D.Luc cells. Kind of series: Neutral red uptake cytotoxicity assay, 24-hr exposure. The class given is cell-based, human. To be noted: lowest concentration causing a significant decrease of cell viability; 24-hr exposure Neutral Red uptake. How it is done:
We determined estrogenic activities of 17 prevalent PCB congeners using the ER-CALUX bioassay (BioDetection Systems) using the human breast carcinoma T47D.Luc cell line, stably transfected with pEREtataLuc construct ([Legler et al. 1999]; [Machala et al. 2004]). ER-mediated activity was also determined in the cells treated with either total serum hexane/diethyl ether extracts or with a fraction of POPs obtained by a consequent sulfuric acid/silica fractionation. […] We determined cytotoxicity of extracts or individual PCBs by a neutral red uptake assay after a 24-hr exposure.

Molecules are shown by their SMILES.

For `Clc1cc(Cl)c(-c2cc(Cl)c(Cl)cc2Cl)cc1Cl` [PCB 153, 2,2′,4,4′,5,5′-Hexachlorobiphenyl], the “Estrogenicity in the acute 2-day immature rat uterine weight assay” value in the series with rat uterus is “estrogenic”. In addition, in the series on MCF-7 cells, the “Antiestrogenic effects in reporter gene and cell proliferation MCF-7 assays” value is on record as “Antiestrogenic effects”. For the same molecule, the “Cytotoxicity LOEC” value in the series on T47D.Luc cells was determined as 20 µM.
